This is an account of results in patent US20240336926A1, “PHARMACEUTICAL COMPOSITION FOR TREATING TRIPLE NEGATIVE BREAST CANCER, CONTAINING NON-NATURAL NUCLEIC ACID LIGAND AS ACTIVE INGREDIENT” (INTEROLIGO CORPORATION, priority 2021, published 2024).

One data set addresses K-RAS G12D protein (Homo sapiens, UniProt P01116, G12D). As to the kind of experiment: ELISA binding affinity (Kd) for 2nd target. To be noted: read-out: Biding affinity for 2nd target Kd, ligands with biotin conjugated to the 5′-end. For orientation: ELISA stands for enzyme-linked immunosorbent assay.
Data set [1] concerns the target human serum albumin (HSA) (Homo sapiens, UniProt P02768). Description: ELISA binding affinity (Kd) for 1st target.
Data set [2] in a line: Serum half-life in human serum (urea-PAGE band intensity). The data set is classed as in vitro ADME. Conditions: 96% human serum, 37° C.; ligands with biotin conjugated to the 5′-end. The procedure:
The stabilized nucleic acid ligand was added to the 96% human serum and then reacted at 37° C. for 0, 3, 6, 9, 12, 15, and 18 hours, thereby inducing the degradation of the nucleic acid ligand. After each of the reaction times, the nuclease was inactivated by heating at 85° C., and electrophoresis was performed on a 10% urea-polyacrylamide gel. A control without the addition of human serum was included as a loading control, and the band intensities of the control and the test groups were measured. The intensity trend line over time was determined using the measurement values, and the intensity value was inserted into the trend equation to obtain the half-life.

Where two headings read alike, the source gives them in different places. [NapdU] = 5-(N-(1-naphthylmethyl)carboxamide)-2'-deoxyuridine (Nap-dU)

Sequence of human serum albumin (HSA) (P02768 25-609): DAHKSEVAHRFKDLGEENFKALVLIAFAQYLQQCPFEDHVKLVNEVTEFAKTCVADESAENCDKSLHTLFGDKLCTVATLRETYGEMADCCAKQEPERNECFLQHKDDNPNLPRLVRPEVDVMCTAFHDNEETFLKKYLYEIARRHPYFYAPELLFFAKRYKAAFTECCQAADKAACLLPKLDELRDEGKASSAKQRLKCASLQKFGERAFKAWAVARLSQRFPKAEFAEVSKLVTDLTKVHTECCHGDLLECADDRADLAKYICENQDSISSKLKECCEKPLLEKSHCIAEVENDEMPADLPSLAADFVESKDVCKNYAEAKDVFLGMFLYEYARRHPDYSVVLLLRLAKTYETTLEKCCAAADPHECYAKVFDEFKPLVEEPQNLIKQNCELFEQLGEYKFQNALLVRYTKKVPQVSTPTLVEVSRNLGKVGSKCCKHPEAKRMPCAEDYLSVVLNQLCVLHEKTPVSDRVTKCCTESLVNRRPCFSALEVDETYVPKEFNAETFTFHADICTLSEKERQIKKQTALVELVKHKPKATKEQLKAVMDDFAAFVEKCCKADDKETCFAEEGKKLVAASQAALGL
Description for K-RAS G12D protein: The binding affinity of the nucleic acid ligands were measured using enzyme linked immunosorbent assay (ELISA).
The test method was composed of the following steps. • 1) A target protein was coated on a microplate at a low temperature for 16 hours. • 2) The surface of the microplate was blocked by reaction at room temperature for 1 hour using Blocking Buffer (Pierce™ Protein-Free (PBS) Blocking Buffer, Thermo Scientific, USA). • 3) The microplate was treated with a nucleic acid ligand, followed by reaction at 37° C. for 1 hour. • 4) For enzyme conjugation, the microplate was treated with a streptavidin-horseradish peroxidase (HRP) conjugate (Thermo Scientific, USA), followed by reaction at room temperature for 1 hour. • 5) The microplate was treated with TMB substrate solution (Thermo Scientific, USA), followed by reaction at room temperature for 30 minutes. • 6) The microplate was treated with a reaction termination solution (2 M sulfuric acid). • 7) The absorbance was measured at 450 nm using GloMax plate meter (Promega, USA).
The target protein and the nucleic acid ligand were each used at 4-fold dilution starting from 500 nM.

As to “AD007: truncated nucleic acid ligand GCA6AAG6CCGGA6GGCAGC666A6GCCGACC, 6 = Nap-dU (DNA GCAUAAGUCCGGAUGGCAGCUUUAUGCCGACC; aptamer; DNA, [NapdU] at 4, 8, 14, 21, 22, 23, 25, backbone and methylation of C not given here)”, the Kd with K-RAS G12D protein is 152 nM; in data set [1] it was 536 nM.
Taken in the same sequence, the figures for “AD004: truncated nucleic acid ligand GCCTGGAC6AGCA6AAG6CCGGA6GGCAGC666A6GCCGACCA6CAGCC, 6 = Nap-dU (DNA GCCTGGACUAGCAUAAGUCCGGAUGGCAGCUUUAUGCCGACCAUCAGCC; aptamer; DNA, [NapdU] at 9, 14, 18, 24, 31, 32, 33, 35, 44, backbone and methylation of C not given here)” were 16.6 nM and 190 nM.
On to “AD005: truncated nucleic acid ligand GAC6AGCA6AAG6CCGGA6GGCAGC666A6GCCGACCA6, 6 = Nap-dU (DNA GACNAGCANAAGNCCGGANGGCAGCNNNANGCCGACCAN; Nap-dU modified bases; modified_base 4 OTHER; 5-(N-(1-naphthylmethyl)carboxamide)-2-deoxyuridine; modified_base 9 OTHER; 5-(N-(1-naphthylmethyl)carboxamide)-2'-deoxyuridine(Nap-dU); modified_base 13 OTHER; modified_base 19 OTHER; modified_base 26..28 OTHER; 5-(N-(1-naphthylmethyl)carboxamide)-2'-deox)”, for which the “Serum half-life t½” value in data set [2] is 30.1 h. The Kd is 22.9 nM with K-RAS G12D protein and 122 nM in data set [1] (HSA, ELISA, ligands with biotin conjugated to the 5′-end, read-out: Biding affinity for 1st target Kd).
For “AD006: truncated nucleic acid ligand GAC6AGCA6AAG6CCGGA6GGCAGC666A6GCCG, 6 = Nap-dU (DNA GACUAGCAUAAGUCCGGAUGGCAGCUUUAUGCCG; aptamer; DNA, [NapdU] at 4, 9, 13, 19, 26, 27, 28, 30, backbone and methylation of C not given here)”, the Kd with K-RAS G12D protein came to 77.6 nM; in data set [1] it was 939 nM.
In the case of “AD008: truncated nucleic acid ligand GCA6AAG6CCGGA6GGCAGC666A6GC, 6 = Nap-dU (DNA GCAUAAGUCCGGAUGGCAGCUUUAUGC; aptamer; DNA, [NapdU] at 4, 8, 14, 21, 22, 23, 25, backbone and methylation of C not given here)”, the Kd in the data set with K-RAS G12D protein was 287 nM; in data set [1], 66.9 nM.

A word on the Kd: it is the free concentration of one partner at which half of the binding sites on the other are occupied at equilibrium, for simple one-to-one binding.
